What was measured:
[1] = target: T1, NURR-1/RXRα (Homo sapiens, UniProt P19793); assay: Transactivation test, NURR-1-Gal4/RXRα, luciferase reporter in Cos-7 cells; type: cell-based; details: for EC50: Cos-7 cells, NURR-1-Gal4/RXRα, luciferase reporter, read-out: hNurr1_RXRaFL EC50; for Emax: COS-7, induction level relative to reference XCT0135908 at 2×10^−5 M (=100%), read-out: hNurr1_RXRaFL Emax (%)
T1 construct: expressed in transfected cells; host or cells: Cos-7 cells
Protocol: (§1) The ability of the compounds according to the invention to behave as an activator of the heterodimers formed by the NURR-1 nuclear receptor and the RXR nuclear receptors was measured by means of an in vitro test. A transactivation test was used as primary selection (screening) test. Cos-7 cells were cotransfected with a plasmid expressing a chimera of the human NURR-1-Gal4 receptor, a plasmid expressing the human RXR receptor (RXRα or RXRγ receptor) and a 5Gal4pGL3-TK-Luc reporter plasmid. The transfctions were carried out using a chemical agent (Jet PEI). The transfected cells were distributed into 384-well plates and left to stand for 21 hours. At time 24 hours the culture medium was changed. The test products were added (final concentration of between 10^''4 and 3×10^-10 M) to the culture medium. After incubation overnight, the lucifeiase expression was measured after addition of SteadyGlo according to the instructions of the manufacturer (Promega). […] The induction levels (Emax) were calculated relative to the basal activity of each heterodimer.

[2] = target: T2, NURR-1/RXRγ (Homo sapiens, UniProt P48443); assay: Transactivation test, NURR-1-Gal4/RXRγ, luciferase reporter in Cos-7 cells; type: cell-based; details: for EC50: Cos-7 cells, NURR-1-Gal4/RXRγ, luciferase reporter, read-out: hNurr1_RXRgFL EC50; for Emax: COS-7, induction level relative to reference XCT0135908 at 2×10^−5 M (=100%), read-out: hNurr1_RXRgFL Emax (%)
T2 construct: expressed in transfected cells; host or cells: Cos-7 cells
Protocol: as §1

[3] = induction level relative to reference XCT0135908 at 2×10^−5 M (=100%)

T2 sequence (P48443 whole entry, the tested form may be a part): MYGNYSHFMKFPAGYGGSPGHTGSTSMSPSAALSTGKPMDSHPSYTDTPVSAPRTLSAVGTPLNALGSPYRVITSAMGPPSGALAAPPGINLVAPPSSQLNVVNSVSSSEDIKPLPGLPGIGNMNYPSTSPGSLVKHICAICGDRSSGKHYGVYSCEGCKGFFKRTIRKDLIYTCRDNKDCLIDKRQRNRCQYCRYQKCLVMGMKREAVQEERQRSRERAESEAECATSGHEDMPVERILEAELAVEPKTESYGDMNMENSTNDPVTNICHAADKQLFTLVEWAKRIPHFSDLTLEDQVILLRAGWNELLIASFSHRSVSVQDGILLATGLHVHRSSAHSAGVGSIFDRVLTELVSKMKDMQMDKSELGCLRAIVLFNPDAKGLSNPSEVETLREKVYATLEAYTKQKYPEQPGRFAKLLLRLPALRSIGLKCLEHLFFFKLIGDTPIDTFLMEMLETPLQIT
T2 sequence (P43354 whole entry partner, the tested form may be a part): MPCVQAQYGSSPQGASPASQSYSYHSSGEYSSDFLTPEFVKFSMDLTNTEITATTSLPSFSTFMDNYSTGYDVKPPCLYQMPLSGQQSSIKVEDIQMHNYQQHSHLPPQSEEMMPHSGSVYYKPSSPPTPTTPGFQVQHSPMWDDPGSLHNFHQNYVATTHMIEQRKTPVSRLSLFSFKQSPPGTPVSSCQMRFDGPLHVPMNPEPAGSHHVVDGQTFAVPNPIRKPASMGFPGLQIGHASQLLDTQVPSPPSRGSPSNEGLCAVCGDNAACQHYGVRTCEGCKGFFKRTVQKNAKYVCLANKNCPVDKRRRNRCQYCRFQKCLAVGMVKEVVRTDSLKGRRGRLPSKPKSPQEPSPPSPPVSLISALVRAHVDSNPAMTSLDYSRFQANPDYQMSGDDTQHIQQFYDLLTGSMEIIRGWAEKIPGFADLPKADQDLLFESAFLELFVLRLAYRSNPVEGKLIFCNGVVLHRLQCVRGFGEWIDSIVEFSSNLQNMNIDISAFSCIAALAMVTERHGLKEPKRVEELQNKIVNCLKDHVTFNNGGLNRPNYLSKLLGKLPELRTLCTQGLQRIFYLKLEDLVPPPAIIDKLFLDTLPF
T2 sequence (P04386 1-147 partner limits assumed): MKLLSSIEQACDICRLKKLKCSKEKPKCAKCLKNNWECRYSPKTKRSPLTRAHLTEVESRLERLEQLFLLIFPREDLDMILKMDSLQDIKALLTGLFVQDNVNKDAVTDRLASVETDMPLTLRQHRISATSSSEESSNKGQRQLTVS
T1 sequence (P19793 whole entry, the tested form may be a part): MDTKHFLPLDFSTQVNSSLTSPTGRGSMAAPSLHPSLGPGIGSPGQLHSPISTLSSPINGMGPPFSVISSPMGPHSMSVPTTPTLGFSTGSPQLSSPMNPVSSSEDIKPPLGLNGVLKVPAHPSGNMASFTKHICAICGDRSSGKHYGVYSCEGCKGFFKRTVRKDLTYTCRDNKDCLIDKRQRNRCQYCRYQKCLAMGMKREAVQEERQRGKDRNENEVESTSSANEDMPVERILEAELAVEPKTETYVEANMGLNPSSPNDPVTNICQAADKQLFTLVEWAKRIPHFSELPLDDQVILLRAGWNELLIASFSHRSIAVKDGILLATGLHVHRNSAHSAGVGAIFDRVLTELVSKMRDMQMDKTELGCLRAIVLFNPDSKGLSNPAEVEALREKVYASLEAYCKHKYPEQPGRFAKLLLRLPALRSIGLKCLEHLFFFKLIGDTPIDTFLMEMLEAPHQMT
T1 sequence (P43354 whole entry partner, the tested form may be a part): as the sequence (P43354 whole entry partner, the tested form may be a part) above
T1 sequence (P04386 1-147 partner limits assumed): as the sequence (P04386 1-147 partner limits assumed) above

EC50 [1] | hNurr1_RXRaFL Emax (%) [1, 3] | EC50 [2] | hNurr1_RXRgFL Emax (%) [2, 3] | Emax [1] | Emax [2] | SMILES
0.01 µM | 107% | 0.017 µM | 95% |  |  | CC1COc2cc(C(F)(F)F)ccc2N1c1cccc(N2CC(C(=O)O)C2)c1 (single isomer, unassigned; isomer 2) [Example 124-2, 1-[3-[3-methyl-7-(trifluromethyl)-2,3-dihydro-1,4-benzoxazin-4-yl]phenyl]azetidine-3-carboxylic acid, isomer 2]
0.041 µM |  | 0.069 µM |  | 122% | 108% | Cc1cc(-c2cccc(OC(F)(F)F)c2)cc(N2CC(C(=O)O)C2)c1 [Example 1, 1-[3-methyl-5-[3-(trifluoromethoxy)phenyl]phenyl]azetidine-3-carboxylic acid]
0.019 µM |  | 0.032 µM |  | 119% | 119% | Cc1cc(-c2cc(N(C)C)cc(C(F)(F)F)c2)cc(N2CC(C(=O)O)C2)c1 [Example 2, 1-[3-[3-(dimethylamino)-5-(trifluoromethyl)phenyl]-5-methylphenyl]azetidine-3-carboxylate acid]
0.013 µM |  | 0.016 µM |  | 101% | 97% | Cc1cc(-c2cccc(C(C)C)c2)cc(N2CC(C(=O)O)C2)c1 [Example 3, 1-[3-(3-isopropylphenyl)-5-methylphenyl]azetidine-3-carboxylate acid]
0.038 µM |  | 0.028 µM |  | 96% | 100% | Cc1cc(-c2cccc(N3CCCC3)c2)cc(N2CC(C(=O)O)C2)c1 [Example 4, 1-[3-methyl-5-(3-pyrrolidin-1-ylphenyl)phenyl]azetidine-3-carboxlic acid]
0.047 µM |  | 0.093 µM |  | 124% | 115% | Cc1cc(-c2cccc(OC(F)F)c2)cc(N2CC(C(=O)O)C2)c1 [Example 5, 1-[3-[3-(difluoromethoxy)phenyl]-5-methylphenyl]azetidine-3-carboxylic acid]
0.186 µM |  | 0.461 µM |  | 111% | 101% | Cc1cc(-c2cccc(N3CCOCC3)c2)cc(N2CC(C(=O)O)C2)c1 [Example 6, 1-[3-methyl-5-(3-morpholinophenyl)phenyl]azetidine-3-carboxylic acid]
0.005 µM |  | 0.012 µM |  | 107% | 107% | Cc1cc(-c2cc(F)cc(C(F)(F)F)c2)cc(N2CC(C(=O)O)C2)c1 [Example 8, 1-[3-[3-fluoro-5-(trifluoromethyl)phenyl]-5-methluphenyl]azetidine-3-carboxylic acid]
0.032 µM |  | 0.116 µM |  | 105% | 102% | O=C(O)C1CN(c2cccc(-c3cc(F)cc(C(F)(F)F)c3)c2)C1 [Example 13, 1-[3-[3-fluoro-5-(trifluoromethyl)phenyl]phenyl]azetidine-3-carboxylic acid]
0.053 µM |  | 0.114 µM |  | 99% | 106% | O=C(O)C1CN(c2cccc(-c3cccc(C(F)(F)F)c3)c2)C1 [Example 14, 1-[3-[3-(trifluoromethyl)phenyl]phenyl]azetidine-3-carboxylic acid]
0.022 µM |  | 0.043 µM |  | 95% | 85% | Cc1cc(-c2cccc(C(F)(F)F)c2C)cc(N2CC(C(=O)O)C2)c1 [Example 15, 1-[3-methyl-5-[2-methyl-3-(trifluoromethyl)phenyl]phenyl]azetidine-3-carboxylic acid]
0.002 µM |  | 0.004 µM |  | 119% | 103% | Cc1cc(-c2cc(Cl)cc(C(F)(F)F)c2)cc(N2CC(C(=O)O)C2)c1 [Example 16, 1-[3-[3-chloro-5-(trifluoromethyl)phenyl]-5-methylphenyl]azetidine-3-carboxylic acid]
0.053 µM |  | 0.119 µM |  | 99% | 84% | Cc1cc(-c2cccc(N3CCCCC3)c2)cc(N2CC(C(=O)O)C2)c1 [Example 17, 1-[3-methyl-5-[3-(1-piperidyl)phenyl]phenyl]azetidine-carboxylic acid]
0.067 µM |  | 0.157 µM |  | 95% | 93% | Cc1cc(-c2cc(F)cc(Cl)c2)cc(N2CC(C(=O)O)C2)c1 [Example 18, 1-[3-(3-chloro-5-fluorophenyl)-5-methylphenyl]azetidine-3-carboxylic acid]
1.43 µM |  | 1.77 µM |  | 97% | 71% | Cc1cc(-c2cccc(C3=NC(C)(C)CO3)c2)cc(N2CC(C(=O)O)C2)c1 [Example 19, 1-[3-[3-(4,4-dimethyl-5H-oxazol-2-yl)phenyl]-5-methylphenyl]azetidine-3-carboxylic acid]
2.09 µM |  | > 5 µM |  | 87% | 69% | Cc1cc(-c2cccc(C(C)(C)O)c2)cc(N2CC(C(=O)O)C2)c1 [Example 20, 1-[3-[3-(1-hydroxy-1-methylethyl)phenyl]-5-methylphenyl]azetidine-3-carboxylic acid]
0.013 µM |  | 0.004 µM |  | 102% | 101% | Cc1cc(-c2cc(C(F)(F)F)nc3ccccc23)cc(N2CC(C(=O)O)C2)c1 [Example 21, 1-[3-methyl-5-[2-(trifluoromethyl)-4-quinolyl]phenyl]azetidine-3-carboxylic acid]
0.013 µM |  | 0.03 µM |  | 111% | 107% | Cc1cc(-c2cccc(C(F)(F)F)c2F)cc(N2CC(C(=O)O)C2)c1 [Example 23, 1-[3-[2-fluoro-3-(trifluoromethyl)phenyl]-5-methylphenyl]azetidine-3-carboxylic acid]
0.003 µM |  | 0.013 µM |  | 114% | 104% | Cc1cc(-c2cc(C(F)(F)F)ccc2Cl)cc(N2CC(C(=O)O)C2)c1 [Example 24, 1-[3-[2-chloro-5-(trifluoromethyl)phenyl]-5-methylphenyl]azetidine-3-carboxylic acid]
0.019 µM |  | 0.05 µM |  | 99% | 109% | Cc1cc(-c2cccc3c2OC(F)(F)O3)cc(N2CC(C(=O)O)C2)c1 [Example 25, 1-[3-(2,2-difluoro-1,3-benzodioxal-4-yl)-5-methylphenyl]azetidine-3-carboxylic acid]
0.02 µM |  |  |  | 46% |  | COc1ccccc1C(C)Oc1ccc(C(F)(F)F)cc1-c1cccc(N2CC(C(=O)O)C2)c1 (centres unmarked) [Example 95, 1-[3-[2-[1-(2-methoxyphenyl)ethoxy]-5-(triflurooemethyl)phenyl]phenyl]azetidine-3-carboxylic acid]
0.00079 µM |  |  |  | 77% |  | CN1CC2(CCC2)Oc2cc(C(C)(C)C)cc(-c3cccc(N4CC(C(=O)O)C4)c3)c21 [Example 213, tert-butylammonium 1-[3-(7-tert-butyl-4-methyl-spiro[3H-1,4-benzoxazine-2,1′-cyclobutane]-5-yl)phenyl]azetidine-3-carboxylate]
0.001 µM |  |  |  | 61% |  | CC1(C)CN(CC(F)(F)F)c2c(cc(C(F)(F)F)cc2-c2cccc(N3CC(C(=O)O)C3)c2)O1 [Example 215, tert-butylammonium 1-[3-[2,2-dimethyl-4 (2,2,2-trifluoromethyl)-7-(trifluoromethyl)-3H-1,4-benzoxazin-5-yl]phenyl]azetidine-3-carboxylate]
0.114 µM |  |  |  | 89% |  | CC(C)c1ccc2c(c1)CC(C)(C)CN2c1cccc(N2CC(C(=O)O)C2)c1 [Example 245, tert-butylammonium 1-[3-(6-isopropyl-3,3-dimethyl-2,4-dihydroquinolin-1-yl)phenyl]azetidine-3-carboxylate]
2.95 µM |  |  |  | 70% |  | CC1(C)Oc2cc(C#N)ccc2N(c2cccc(N3CC(C(=O)O)C3)c2)C1=O [Example 254, tert-butylammonium 1-[3-(7-cyano-2,2-dimethyl-3-oxo-1,4-benzoxazin-4-yl)phenyl]azetidine-3-carboxylate]
0.005 µM |  |  |  | 99% |  | CC1(C)CC(c2cccc(N3CC(C(=O)O)C3)c2)c2ccc(C(F)(F)F)cc2O1 (centres unmarked) [Example 270, tert-butylammonium 1-[3-[2,2-dimethyl-7-(trifluoromethyl)chroman-4-yl]phenyl]azetidine-3-carboxylate]

SMILES | EC50 [1] | hNurr1_RXRaFL Emax (%) [1, 3] | EC50 [2] | hNurr1_RXRgFL Emax (%) [2, 3] | Emax [1] | Emax [2]
Cc1cc(-c2ccc3c(c2)C(C)(C)CCC3(C)C)cc(N2CC(C(=O)O)C2)c1 [Example 9, 1-[3-methyl-5-(1,1,4,4-tetramethyltetralin-6-yl)phenyl]azetidine-3-carboxylic acid] | 0.007 µM |  | 0.016 µM |  | 82% | 86%
CC(C)COc1ccc(C(F)(F)F)cc1-c1cccc(N2CC(C(=O)O)C2)c1 [Example 94, 1-[3-[2-isobutoxy-5-(trifluoromethyl)phenyl]phenyl]azetidine-3-carboxylic acid] | 0.018 µM |  |  |  | 48% | 

— patent US20170066717A1, “NEW PHENYLAZETIDINECARBOXYLATE OR -CARBOXAMIDE COMPOUNDS” (INVENTIVA, priority 2014, published 2017)
